Consider seven compounds from patent US20260327274A1, “PROTEIN HYDROLYSATES OF AZUKI BEANS AND COSMETIC USES THEREOF” (LUBRIZOL ADVANCED MATERIALS, INC., priority 2022, published 2026).

Ends that are not written are not given here.

The subject of one assay is Caucasian hair shafts. Put plainly: Ex vivo protection evaluation in Caucasian hair shafts (protein carbonylation). On the set-up: species or system human. The settings on record: positive control NAC, concentration not given; stress (PM + UV-A); basal control 100, stress 214. The source says: Carbonylated proteins in hair shafts or HFDPC are labeled in situ using a fluorescent probe functionalized to specifically bind carbonyl groups in proteins [Baraibar, M A, et al., “Proteomic quantification and identification of carbonylated proteins upon oxidative stress and during cellular aging” J. Proteomics (2013) 30; 92:63-70]. Specific fluorescent signals (relative fluorescent units) per experimental group (n=6) are collected and analyzed with ImageJ™ software. A relative value (%) of Carbonylation Level per experimental group is obtained with respect to basal control.
hair shafts (donor; light brown) are treated with hydrolysate of Example 3 at 1% (v/v) (active ingredient solubilized in ultra-pure water, leave on (no washing steps)) for 30 minutes with gently movement at room temperature. After this time, hair shafts are dried at room temperature and are stressed with Particle Matters at 150 μg/cm^2 (from European Reference Material; Ref. CZ100) followed by UV-A irradiation (LED source, emission peak at 365 nm, 84 J/cm^2) for 6 h.
After stress exposure Proteins Carbonylation is determined as described in Example 5.

Assay [1] is described as follows: DPPH inhibition by synthesized peptides identified in the hydrolysate. Type of assay: biochemical. The settings on record: for DPPH inhibition (%): synthesized peptide, test concentration not given; for Ability to inhibit DPPH / antioxidant potential (in words): synthesized peptides, F′2 subfraction. The method, then:
(§1) Twelve different batches of purified hydrolysate obtained as described from Examples 1 to 3 are analyzed to determine the dry weight, protein content and antioxidant activity. • Dry weight is determined by weight difference after drying at 110° C. • Protein content is determined by using a BCA Assay kit. • Antioxidant activity is determined by DPPH (2,2-Diphenyl-1-Picrylhydrazyl) assay. • Briefly, 50 μL of 100 µM DPPH in EtOH is mixed with 50 μL of purified hydrolysate and incubated in the dark at 37° C. for 20 min and absorbance measured at 517 nm.
The purified extract according to Example 3 is further fractionated by using semi-preparative high-performance liquid chromatography (HPLC) and antioxidant activity assayed by DPPH for identifying the active fraction or peptides.
Collected tubes are analyzed by analytical HPLC at 3.0 mg/ml using a Cortecs C18+column (4.6×50 mm; 2.7 μm; Waters®) at a flow of 1.6 ml/min using the following gradient composition: isocratic of 0% B in 2 min, 0 to 30% of B in 5 min, and 30 to 75% of B in 5 min, monitoring absorbance of eluting peaks at 220 nm. Different fractions are obtained from the purified hydrolysate and lyophilized for further analysis and separation. Fractions are reconstituted in water and their antioxidant activity is determined by measuring the percentage of DPPH inhibition using the methodology described above.
To identify peptide sequences, the Proteome Discoverer 1.4.0.288 program (Thermo) with MASCOT 2.5 is used. The identified peptides are individually synthesized by applying standard solid phase peptide synthesis, using Fmoc/tBu chemistry protocols. As starting resin, CTC-PS or HO-Trt-Chem Matrix® resin is used. In the latter case, initial resin chlorination took place by overnight reaction with […] in dry THF. The first amino acid is introduced as a solution in DMF in presence of DIEA as base, followed by capping of the resin with MeOH. The resin is washed with DMF, prior to removal of Fmoc group by treatment with a 20% solution of piperidine in DMF, followed by washings in the same solvent. Subsequent residues are incorporated in DMF employing DIPCDI and Oxyma as coupling reagents. After verification of reaction completion using ninhydrin test, the solvent is filtrated away by suction. After this, the resin is washed with DMF and the Fmoc-deprotection step is repeated as abovementioned or in 2% DBU in DMF. Coupling-deprotection cycles are repeated for introduction of the remaining amino acids, with increasing Fmoc removal treatment times from the 6th residue. Oxyma (0.5M) is introduced in the cocktail whenever Asp residue is already incorporated into the growing peptide chain.
The peptidyl resin is washed and dried using DMF, DCM and diethyl ether and finally left under vacuum overnight to get rid of solvent traces. Cleavage of the crude product from the solid support and removal of the side-chain protecting groups is achieved by acidolysis using TFA and 5% water as scavenger. The peptide is precipitated out of the acidic mixture with Et2O, followed by washes with the same solvent and drying under reduced pressure. Crude trifluoroacetate salt peptide is lyophilized and analyzed by analytical HPLC-MS, affording peptide purities over 80%.
Synthesized peptides are further evaluated for its capacity to inhibit DPPH as a reference for their antioxidant potential. […] ID.
A general note: Loss of DPPH colour is used to gauge radical scavenging.

Assay [2] is described as follows: DPPH assay of antioxidant activity in combination with preservatives, initial and after 3 months storage. Type of assay: biochemical. The conditions noted are these: 0.5% (w/w) Sodium Benzoate alone. The method, then:
as §1
The inhibition percentage is calculated from the following formula: […]
Suitable preservative [1% (w/w) Dermosoft™ 700B (INCI: Levulinic Acid (and) Sodium Levulinate (and) Glycerin (and) Aqua), 4% (w/w) Leucidal™ SF Max from Active Micro Technologies (AMT) (INCI: Lactobacillus Ferment) or 4% (w/w) Leucidal™ Liquid (INCI: Leuconostoc/Radish Root Ferment Filtrate)] is added onto deionized water under continuous stirring. Purified hydrolysate according to Example 3 is added on top of this solution to obtain a concentration of 44-88% (v/v), depending on sample dry weight. […] Samples are maintained for 3 months at 40° C. or at room temperature and antioxidant activity determined by DPPH assay.

In the case of `CC(=O)N[C@@H](CS)C(=O)O` [NAC, N-acetyl-cysteine], in the assay with Caucasian hair shafts, the “Carbonylation level % (MEAN ± SEM)” value worked out at 166.8 ± 5.41 %. For the compound EYTGDAAGR [SEQ ID No. 5], in assay [1], the “DPPH inhibition (%)” value was determined as 83.9% and the “Ability to inhibit DPPH / antioxidant potential (in words)” value is “most antioxidant peptides”.

With VAEQEQEQAKRQ [SEQ ID No. 1], in assay [1], the “DPPH inhibition (%)” value worked out at 78.7% and the “Ability to inhibit DPPH / antioxidant potential (in words)” value is on record as “most antioxidant peptides”.

As to `O=C(O)c1ccccc1` [Sodium Benzoate], the “% DPPH INHIBITION, t = 0” value in assay [2] came out at 0%.

Regarding GINAENNQRN [SEQ ID No. 4], in assay [1], the “DPPH inhibition (%)” value is recorded as 96.3% and the “Ability to inhibit DPPH / antioxidant potential (in words)” value is on record as “most antioxidant peptides”. In the same order, the values of VDAQPEEQQR [SEQ ID No. 3] are 100% and “most antioxidant peptides”. In the same order, the values of LPQQEQGHDR [SEQ ID No. 2] are 77.5% and “most antioxidant peptides”.
